From US20010007907A1, “3-EPI COMPOUNDS OF VITAMIN D3 AND USES THEREOF” (WOMEN AND INFANTS HOSPITAL, priority 1997, published 2001)
Like-named read-outs stand apart in the source and are kept apart here.

Tests used:
keratinocytes [1] = assay: Keratinocyte growth inhibition (cell number per well); type: cell-based, human; conditions: for potency at inhibiting growth of keratinocytes compared with 1α,25(OH)2-3-epi-D3: data not shown; for inhibition of keratinocyte growth: result in words
Method: To address the effect of 3-epi vitamin D3 compounds on keratinocyte growth, keratinocyte cultures were established at 25.000 cells/per well on day 0 in KGM. […] The cells were allowed to grow for 4 more days with one refeeding on day 3. Number of cells per well was determined on day 4.

human leukemic cells = assay: Proliferation and differentiation of human leukemic cells; type: cell-based; conditions: data not shown
human keratinocytes = assay: Metabolism in human keratinocytes (incubation, lipid extraction, HPLC); type: in vitro ADME
Method: Keratinocytes were prepared as described previously (Kim H. […] First passage keratinocytes were seeded at 0.5×10^6 into […] flasks in keratinocytes growth media (KGM, Clonetics, Inc.). The cells were fed every 2-3 days. The cells were 70-80% confluent usually after 5 days. […] At the end of 24 hr incubation period in a 37° C., 5% CO2 incubator, an equal volume of methanol was added to the cultures. The cells were then scraped from the flasks and all of the media and the cells were pooled and lipid extraction was performed from both cells and media using the Bligh and Dyer technique. […] Zorbax-SIL column eluted with 6% isopropanol in hexane at a flow rate of 2 ml/min. […] Resulting lipid extracts were analyzed using the following HPLC conditions: Zorbax-SIL column eluted with 9% isopropanol in hexane at a flow rate of 2 ml/min. […] Lipid extracts of different time points were analyzed by straight phase HPLC. […] This metabolite peak appeared at 1 hr. incubation period and increased to its maximum by 3 hr.

[2] = target: T1, plasma vitamin D binding protein (DBP) (Homo sapiens, UniProt P02774); assay: Competitive ligand binding to plasma vitamin D binding protein (RCI); conditions: fold over 1α,25(OH)2D3
T1 sequence (P02774 17-474): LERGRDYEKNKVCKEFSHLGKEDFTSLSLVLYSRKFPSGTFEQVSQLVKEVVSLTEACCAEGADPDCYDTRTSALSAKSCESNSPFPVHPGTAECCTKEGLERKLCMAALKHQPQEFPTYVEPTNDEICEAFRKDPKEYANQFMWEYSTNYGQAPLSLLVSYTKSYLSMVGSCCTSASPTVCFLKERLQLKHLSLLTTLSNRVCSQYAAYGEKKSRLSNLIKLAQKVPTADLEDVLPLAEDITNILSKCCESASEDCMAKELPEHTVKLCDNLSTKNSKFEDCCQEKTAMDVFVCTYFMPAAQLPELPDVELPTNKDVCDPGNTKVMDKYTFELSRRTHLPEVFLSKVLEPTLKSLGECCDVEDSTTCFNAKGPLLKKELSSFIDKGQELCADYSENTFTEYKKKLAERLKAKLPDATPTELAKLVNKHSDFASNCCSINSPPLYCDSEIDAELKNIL
Excerpt: The elevated levels of 3-epi binding indicate that 3-epi forms bind to DBP more avidly than their isomeric counterparts. Such enhanced binding may in turn enhance the stability of 3-epi forms in the plasma, and thus may explain the prolonged presence of 3-epi metabolites in vivo.
Ligand binding assays are well known in the art. […] Such plots give linear curves characteristic for each test analog, the slopes of which are equal to the analog's competitive index (Wecksler, W. R. and Norman, A. W. (1980) Methods of Enzymol. 67:494-500).

bovine parathyroid cells [3] = assay: Inhibition of PTH secretion in bovine parathyroid cells; type: cell-based; conditions: result in words
Method: To determine the effect of 3-epi vitamin D3 compounds on parathyroid hormone secretion, bovine parathyroid cells were prepared as described in the metabolism studies. These cells were grown for four days in serum-free media. […] Steady state PTH seretion was determined by washing the cells 3 times with Dulbecco's PBS and then placing them in serum free media for 3 hours. The media was collected, centrifuged at 4° C. and analyzed from PTH using CH9 antibody as described previously (Brown A. J. et al. (1992) Endocrinology 130:276-281). The cell monolayers were dissolved in 0.1 N NaOH and assayed for protein by method of Bradford using a kit from Biorad Laboratories. PTH secretion is expressed as picograms PTH per milligram cell protein (FIG. 20, panel B).

[4] = target: T1, plasma vitamin D binding protein (DBP); conditions: relative competitive index; RCI of 1α,25(OH)2D3 is by definition 100; cited from earlier work
[5] = system: intestinal calcium transport; conditions: relative to 1α,25(OH)2D3 = 100; cited from earlier work
[6] = system: bone calcium mobilization; conditions: relative to 1α,25(OH)2D3 = 100; cited from earlier work
MG-63 = conditions: relative to 1α,25(OH)2D3 = 100; cited from earlier work
[7] = system: intestinal calcium mobilization; conditions: cited from earlier work
HACAT cells = assay: Metabolism of 1α,25(OH)2D3 in immortalized human keratinocytes (HACAT); type: in vitro ADME; conditions: 24 hr, 1uM 1α,25(OH)2D3
Excerpt: Primary cultures of human keratinocytes were used as a control (FIG. 12, panel A). The other three tissues tested included a cell line of immortalized human keratinocytes ([…] commonly studied cancer cell line (human promyelocytic leukemic cell line, HL-60) (FIG. 12, panel C), and perfused rat kidney (FIG. 12, Panel D). […] The experiments certainly establish the fact that the 3-epimerization is not ubiquitous, like the side chain oxidation pathways.

bovine parathyroid cells [8] = assay: Metabolism in bovine parathyroid cells (HPLC); type: in vitro ADME; conditions: 1 uM, 24 hours
Method: Bovine parathyroid glands obtained from a local slaughterhouse were digested with collagenase and the cells were cultured as previously described (Brown A. J. et al. (1992) Endocrinology 130:276-281), and seeded at a density of 80,000 cells/cm^2. Cells were grown to confluence in six days in serum free medium. […]. Incubations were terminated with methanol, and the samples were sent to our laboratory for HPLC analysis. The lipid extract was analyzed using the straight phase HPLC system (Zorbax-SIL column eluted with 6% isopropanol inhexane at 2 ml/min flow rate). […]

[9] = system: human osteosarcoma cell (U-2 OS); assay: Metabolism of 1α,25(OH)2D3 in human osteosarcoma cell (U-2 OS); type: in vitro ADME; conditions: 3×10^7 and 12×10^7 cells
Method: HPLC profiles were determined at two different cell densities, 3×10^7 cells and 12×10^7 as shown in the upper and lower panels of the Figure, respectively.

human placental explants = conditions: 1 uM 1α,25(OH)2D3
[10] = system: rat osteosarcoma cell line UMR 106; assay: Metabolism in rat osteosarcoma cell line UMR 106 (HPLC); conditions: UMR 106, 1α,25(OH)2D3, 24 and 48 hours
Method: (§1) In order to address whether vitamin D3 analogs can be converted to 3-epi forms, a number of analogs were tested in bone cells under identical experimental conditions as described in Example IX.

Caco-2 cells = assay: Metabolism of synthetic analogs in Caco-2 cells (HPLC); type: in vitro ADME, human; conditions: for metabolites detected in subconfluent cells: Caco-2, 6 days after seeding; for metabolites detected in subconfluent cells / metabolites detected in confluent cells: 1 μM, 48 hours; for metabolites detected in confluent cells: Caco-2, 14 days after seeding
Method: To address whether the epimerization of vitamin D3 analogs occurs in other tissues, the intestinal cell line Caco-2 was used as a model system to investigate the metabolism of two synthetic analogs of 1,25(OH)2D3 in intestinal epithelial cells. Subconfluent (6 days after seeding) and confluent (14 days after seeding) cells were incubated with 1 μM 1,25(OH)2-16-ene-D3 or 1,25(OH)2-16-ene-23-yne-D3, respectively, for 48 hours.

[11] = system: rat osteosarcoma cell line UMR 106
Method: as §1

[12] = target: T2, vitamin D3 nuclear receptors (VD3R) (Rattus norvegicus, UniProt P13053); assay: Osteocalcin VDRE reporter gene transcription assay in transfected ROS-17/2.8 cells
T2 sequence (P13053 1-423): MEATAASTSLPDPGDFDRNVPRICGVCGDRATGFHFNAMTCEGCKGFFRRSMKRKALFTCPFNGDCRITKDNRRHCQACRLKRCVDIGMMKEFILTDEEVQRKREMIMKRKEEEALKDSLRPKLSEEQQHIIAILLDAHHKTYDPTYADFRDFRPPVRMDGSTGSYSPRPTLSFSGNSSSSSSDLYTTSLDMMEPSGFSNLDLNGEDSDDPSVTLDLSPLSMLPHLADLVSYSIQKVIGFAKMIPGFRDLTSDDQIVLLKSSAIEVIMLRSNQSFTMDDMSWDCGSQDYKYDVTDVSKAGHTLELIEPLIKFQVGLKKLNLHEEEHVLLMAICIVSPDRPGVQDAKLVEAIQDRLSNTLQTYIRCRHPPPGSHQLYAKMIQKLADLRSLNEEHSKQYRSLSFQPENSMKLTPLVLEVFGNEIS

keratinocytes [13] = conditions: J. Invest. Dermatol. 101:713-718, 1993; cited from earlier work

C=C1/C(=C\C=C2/CCC[C@]3(C)C([C@H](C)CCC(=O)C(C)(C)O)=CC[C@@H]23)C[C@@H](O)C[C@@H]1O [1α,25(OH)2-16-ene-24-oxo-D3]
potency at inhibiting growth of keratinocytes compared with 1α,25(OH)2-3-epi-D3 (keratinocytes [1]): more potent than 1α,25(OH)2-3-epi-D3
inhibition of keratinocyte growth (keratinocytes [1]): equally potent
modulating proliferating and differentiation of human leukemic cells, compared with parent compound (human leukemic cells): equipotent effect as its parent compound
accumulation of metabolite relative to remaining unmetabolized substrate (human keratinocytes; human): exceeded the amounts of remaining unmetabolized substrate

C=C1C(=CC=C2CCCC3(C)C2CCC3C(C)CCCC(C)(C)O)CC(O)CC1O (stereo not drawn) [1α,25(OH)2-3-epi-D3, 3-epi-1α,25-dihydroxycholecalciferol]
increase in the binding to plasma vitamin D binding protein (DBP) compared to 1α,25(OH)2D3 [2]: eightfold
inhibition of keratinocyte growth (keratinocytes [1]): significant biological activity
inhibition of PTH secretion (bovine parathyroid cells [3]): significant biological activity
incubation time at which the tritiated metabolite reaches its maximum (human keratinocytes): 3 h
metabolism into more polar metabolites (human keratinocytes): extensive metabolism
Binding to DBP (RCI) [4]: 800
Intestinal Calcium Transport [5]: 2.8
Bone Calcium Mobilization [6]: 1.5
Osteocalcin Synthesis MG-63 (MG-63): 17
Transcaltachia ([7]; relative to 1α,25(OH)2D3): 80%
Transcaltachia ([7]; relative to 1α,25(OH)2D3 = 100): 80

C=C1/C(=C\C=C2/CCC[C@@]3(C)C2CCC3C(C)CCCC(C)(C)O)CC(O)C[C@@H]1O (stereo partly drawn) [1α,25(OH)2D3]
incubation time at which the tritiated metabolite reaches its maximum (human keratinocytes; human keratinocytes from adult breast skin incubated with tritiated 25(OH)D3, physiological substrate concentration): 1 to 2 h
formation of 1α,25(OH)2-3-epi-D3 (peak M) (human keratinocytes; primary human keratinocytes, 24 hr, 1uM 1α,25(OH)2D3): is formed in keratinocytes and the HACAT cells
formation of 1α,25(OH)2-3-epi-D3 (peak M) (HACAT cells): is formed in keratinocytes and the HACAT cells
conversion into 1α,25(OH)2-3-epi-D3 (bovine parathyroid cells [8]): have the ability to convert
conversion into 3-epi form [9]: directly proportional to the concentration of cells
Intestinal Calcium Transport [5]: 100
Bone Calcium Mobilization [6]: 100
Osteocalcin Synthesis MG-63 (MG-63): 100
Transcaltachia ([7]; relative to 1α,25(OH)2D3 = 100): 100
epimerization of the 3-hydroxy group (human placental explants): unable to epimerize
formation of 1α,25(OH)2-3-epi-D3 [10]: dose dependent

C=C1/C(=C\C=C2/CCC[C@]3(C)C([C@H](C)CC#CC(C)(C)O)=CC[C@@H]23)C[C@@H](O)C[C@@H]1O [1α,25(OH)2-16-ene-23-yne-D3]
metabolites detected in subconfluent cells (Caco-2 cells): no metabolites could be detected
metabolites detected in confluent cells (Caco-2 cells): 3-epi forms
rate of metabolism compared with 1,25(OH)2D3 or 1,25(OH)2-16-ene-D3 (Caco-2 cells; Caco-2, all growth conditions, data not shown): metabolized considerably slower
conversion of vitamin D3 analog into less polar 3-epi metabolite [11]: 3-epi forms

C=C1C(=CC=C2CCCC3(C)C(C(C)CC#CC(C)(C)O)=CCC23)CC(O)CC1O (stereo not drawn) [3-epi-1,25-dihydroxy-16-ene-25-yne-cholecalciferol]
transcriptional activation in relation to isomeric counterpart [12]: slightly decreased
transcriptional activity compared with 1α,25(OH)2D3 [12]: as active as 1α,25(OH)2D3
induction of VD3R transcriptional activity ([12]; osteocalcin VDRE reporter): dose dependent manner

C=C1/C(=C\C=C2/CCC[C@]3(C)C([C@@H](C)CCCC(C)(C)O)=CCC23)C[C@@H](O)C[C@@H]1O (stereo partly drawn) [1α,25(OH)2-16-ene-20-epi-D3]
conversion of vitamin D3 analog into less polar 3-epi metabolite [11]: 3-epi form

C=C1C(=CC=C2CCCC3(C)C2CCC3C(C)CCCC(C)(C)O)CC(O)CC1O (stereo not drawn) [1α,25(OH)2-20-epi-D3]
conversion of vitamin D3 analog into less polar 3-epi metabolite [11]: 3-epi form

C=C1/C(=C\C=C2/CCC[C@]3(C)C([C@H](C)CCCC(C)(C)O)=CCC23)C[C@@H](O)C[C@@H]1O (stereo partly drawn) [1α,25(OH)2-16-ene-D3]
potency at inhibiting growth of keratinocytes compared with 1α,25(OH)2-3-epi-D3 (keratinocytes [1]): more potent than 1α,25(OH)2-3-epi-D3
inhibition of keratinocyte growth (keratinocytes [1]): equally potent
metabolites detected in subconfluent cells (Caco-2 cells): 1,24,25(OH)3-16-ene-D3 and 1,25 (OH)2-24-oxo-16-ene-D3
metabolites detected in confluent cells (Caco-2 cells): 3-epi form of 1,25(OH)2-16-ene-D3
inhibiting proliferation and inducing differentiation of keratinocytes (keratinocytes [13]): most potent of the analogs tested
